{
  "source": "paper PMC10388354",
  "about": "“Ir(III) Compounds Containing a Terdentate Ligand Are Potent Inhibitors of Proliferation and Effective Antimetastatic Agents in Aggressive Triple-Negative Breast Cancer Cells” (Journal of Medicinal Chemistry, 2023)",
  "assay_type_in_all_cases": "cell-based, human",
  "key": {"[1]": {"tested_on": "MCF-10A cells", "experiment": "Antiproliferative activity, sulforhodamine B (SRB) assay, non-malignant cells", "description": "The antiproliferative activity of the investigated compounds was evaluated using the SRB assay. The cells were seeded in 96-well tissue culture plates at a density of 3 × 10^3 cells/well in 100 μL of the medium. After overnight incubation in a humidified CO2 incubator, the cells were treated with the tested compounds in a final volume of 200 μL/well. After an additional 72 h, cells were washed with PBS and fixed for 1 h at 4 °C with trichloroacetic acid. Then, the cells were stained with 0.4% SRB dye for 30 min. Stained cells were dissolved with Tris (10 mM). The cell viability was evaluated by measurement of the absorbance at 570 nm using an absorbance reader (SPARK TECAN, SCHOELLER). The reading values were converted to the percentage of control (% cell survival). Antiproliferative effects were expressed as IC50 values calculated from curves constructed by plotting cell survival (%) versus drug concentration (μM) (IC50 = concentration of the agent inhibiting cell growth by 50%). Concentrations of compounds present in the medium during the treatment were verified by FAAS or ICP-MS."}, "[2]": {"tested_on": "MDA-MB-231 cells", "experiment": "Anti-invasion activity, real-time monitoring (xCELLigence RTCA CIM plate)", "settings": "cells treated with IC50,72h for 24 h before seeding; monitored 7 days; untreated control 21 h", "description": "The anti-invasive effects of the investigated Ir complexes in real time were assessed by the xCELLigence DP instrument with the migration RTCA CIM plate 16.[48] This system is based on the principle of the Boyden chamber that allows real-time monitoring of the number of invading cells. When cells migrate from the upper to lower wells through the microporous membrane with integrated microelectrodes, they contact and adhere to the microelectrodes affecting the impedance. The output of the experiment performed with this system is the dimensionless cell index (CI); when the cells invade, the CI increases. Moreover, it is possible to analyze the time from cell seeding to the time when invasion through the membrane matrix for each sample treated with tested compounds started (tinv). This period is determined by the intersection of the curve corresponding to the particular time-dependent cell response profile (TCRP) with the straight line corresponding to the threshold value (CI = 0). […] The invasion process was monitored for 7 days to determine whether cell death occurred during the subsequent time after the invasion was observed.\nAnti-invasion activity was monitored by the xCELLigence system (Roche). […] Samples were continuously monitored every 5 min for an additional 7 days. […]"}, "[3]": {"tested_on": "B-catenin", "experiment": "RT-qPCR of EMT-related gene transcripts", "settings": "MDA-MB-231, 24 h, IC50,72h", "description": "(§1) MDA-MB-231 cells were seeded on a six-well plate at the density of 0.5 × 10^6 cells per well and incubated overnight. […] Cells were harvested, and total RNA was isolated using NucleoSpin RNA columns (Machery Nagel, GE). One-step qPCR combining reverse transcription followed by amplification thermal cycling was applied using a Luna Universal One-Step RT-qPCR (New England BioLabs, MA, USA). Experiments were performed on an Illumina Eco Real-Time PCR (Illumina, CA, USA). The thermal profile was as follows: reverse transcription for 10 min at 55 °C and initial denaturation for 1 min at 95 °C, followed by 43 thermal cycles of denaturation for 10 s at 95 °C and extension for 30 s at 60 °C. Primer sequences were as follows: Β-actin-F: […]; Β-actin-R: […]; Vim-F: […]; Vim-R: […]; E-Cadherin-F: […]; E-Cadherin-R: […]; N-Cadherin-F: […]; N-Cadherin-R: […]; B-Catenin-F: […]; B-Catenin-R: […]; SNAI1-F: […]; SNAI1-R: […]. Purified primers were from Generi Biotech (Czech Republic). All runs included melting curve analysis and template-free negative technical controls to confirm specific single-product amplification. Β-actin was used as an internal control. The relative expression of mRNA is represented as a fold increase (2^–ΔΔCt).[69]"}, "[4]": {"tested_on": "E-Cadherin", "experiment": "RT-qPCR of EMT-related gene transcripts", "settings": "MDA-MB-231, 24 h, IC50,72h", "description": "as §1"}, "[5]": {"tested_on": "N-Cadherin", "experiment": "RT-qPCR of EMT-related gene transcripts", "settings": "MDA-MB-231, 24 h, IC50,72h", "description": "as §1"}, "[6]": {"tested_on": "SNAI1", "experiment": "RT-qPCR of EMT-related gene transcripts", "settings": "MDA-MB-231, 24 h, IC50,72h", "description": "as §1"}, "[7]": {"tested_on": "Vimentin", "experiment": "RT-qPCR of EMT-related gene transcripts", "settings": "MDA-MB-231, 24 h, IC50,72h", "description": "as §1"}, "[8]": {"tested_on": "MDA-MB-231 VIM RFP cells", "experiment": "Wound healing assay", "description": "MDA-MB-231 VIM RFP cells were seeded on 35 mm confocal Petri dishes (Mattek) at the density of 3 × 10^5 cells/dish and incubated overnight or for a further 24–48 h to reach approximately 70% confluency. Defined scratch (220 μm width) was done under continuous suction with the pipette tip. Cells were washed, and the medium was replaced with the culture medium supplemented with tested compounds, applied at the equitoxic concentration (IC50,72h). Samples were incubated for an additional 24 h before fixation with 3.7% formaldehyde (10 min, RT) and mounted with ProLong Diamond Antifade Mountant (LifeSciences, Thermo Fisher Scientific). Samples were visualized with a confocal microscope Leica SP8 SMD operated under the deconvolution lightning mode. Images were analyzed by using ImageJ software. The scratch boundaries were identified with the MRI wound healing tool ImageJ plugin or identified manually."}, "[9]": {"tested_on": "spheroids generated from MDA-MB-231 cells", "experiment": "Morphological quantification of 3D tumor spheroids and cell-invasive potential", "settings": "for protrusion occurrence (length): control 32 μm", "description": "The cancer cell transition from proliferation to invasion is usually initiated by nutrient stress and unfavorable conditions caused by the progressive growth of the primary tumor.[63] To study the dynamics of cells to evade the primary tumor, we monitored the morphology of spheroids generated from MDA-MB-231 cells embedded in an agar matrix.[64] Multicellular tumor spheroids represent the most used 3D in vitro model[65] and offer the opportunity to study the invasive potential of cancer cells under conditions much closer to the in vivo situation than when the traditional Transwell assay is used.[64] Morphological parameters were utilized to evaluate the invasive potential of spheroids generated from MDA-MB-231 cells.[66] Spheroid perimeter is the most useful morphological parameter for quantifying overall proliferation, whereas roundness, shape integrity, and quantification of protrusion occurrence are the morphological parameters related to the invasion potential.[64],[66] At the most compact stage, cells on the surface follow the contour of the spheroid. This morphology resembles the proliferating but not invading character of the spheroid, whereas diffuse and rough borders are the signs of the invasive character of peripheral cells. Assessment of the spheroid circularity (roundness) was analyzed by the automated edge detection and measurement of the enclosed area. A circularity equal to one indicates a perfectly circular spheroid, whereas lower values indicate a loss of circularity. The solidity is an indicator of the regularity of the spheroids’ surface or its roughness and thus can be considered the indicator of the primary protrusions and the overall regularity of the spheroid.[66]\nMDA-MB-231 cells were seeded in a sandwich agar matrix (0.5% bottom gel and 0.35% upper cell-containing gel). First, wells of 24-well plates were covered with 0.5% agar gel, and then MDA-MB-231 cells were resuspended in 0.35% agar matrix. The detailed protocol was as follows: Stock solution of agar gel was prepared by autoclaving 1 g of agar in 100 mL of PBS for at least a 20 min liquid cycle. Twenty-four-well plates were covered with 1 mL of 0.5% agar created by mixing 1% agar solution with cultivation media in 1:1 ratio. The dish was then layered with 1 mL of 0.35% agar composed of 0.35 mL of 1% agar and 0.65 mL of cultivation media containing 10^5 MDA-MB-231 cells. After gel solidification, the dish was covered with 2 mL of cultivation media. Mixing of agar solution and media was carried out after the agar solution cooled to approximately 40 °C to prevent damage by high temperature. Cells were cultured for an additional 7 days to establish spheroid structures, then treated with tested compounds at the equitoxic concentration corresponding to IC50,72h, and cultured for an additional 72 h. Samples were photographed on a phase contrast microscope (Olympus CKX41), and images were processed and analyzed for morphology parameters in ImageJ software."}, "[10]": {"tested_on": "vimentin in MDA-MB-231 VIM RFP cells", "experiment": "Flow cytometric quantification of vimentin (VIM RFP reporter)", "settings": "72 h", "description": "Quantification of vimentin expression after the treatment of MDA-MB-231 VIM RFP cells with tested compounds was determined with flow cytometry. MDA-MB-231 VIM RFP cells were seeded at the density of 1 × 10^4 cells/well and incubated overnight. […] After 72 h of incubation, cells were trypsinized and analyzed on a flow cytometer Cell Stream (Luminex, USA). The data were processed using Cell Stream analysis software or FCS Express 7 (DeNovo Software, CA). The fluorescence coming from the VIM RFP tag is proportional to the expression of vimentin in treated cells. Each sample analyzed by flow cytometry consisted of at least 30,000 events."}, "[11]": {"tested_on": "MDA-MB-231 VIM RFP cells", "experiment": "Morphology of the vimentin intermediate filament network by confocal microscopy", "settings": "24 h, IC50,72h", "description": "MDA-MB-231 VIM RFP cells were seeded on 35 mm confocal Petri dishes (Mattek) at the density of 2.5 × 10^5 cells per dish and incubated overnight. […] Then, samples were washed with PBS, fixed with 3.7% formaldehyde (10 min, RT), and mounted with ProLong Diamond Antifade Mountant with DAPI. Samples were visualized with a confocal microscope Leica SP8 SMD operated under the deconvolution lightning mode."}, "[12]": {"settings": "β-actin reference, untreated control as calibrator"}, "[13]": {"settings": "one week-old spheroids, 72 h treatment at IC50,72h"}},
  "data": [
    {"smiles": "COc1cccc2c1C(=O)c1c(O)c3c(c(O)c1C2=O)C[C@@](O)(C(=O)CO)C[C@@H]3O[C@H]1C[C@H](N)[C@H](O)[C@H](C)O1", "note": "[Dox, doxorubicin]", "values": [
      {"measurement": "IC50", "setting": "[1]; Homo sapiens, MCF-10A, SRB assay, 72 h incubation, mean ± SD, non-cancerous cells", "value": "8.6 ± 0.8", "unit": "µM"},
      {"measurement": "SI, average selectivity index", "setting": "[1]; IC50 (MCF-10A)/average IC50 (MDA-MB-231 and MCF-7)", "value": "~18"},
      {"measurement": "tinv, period needed to invade through the matrix membrane", "setting": "[2]", "value": "approximately 35 h"},
      {"measurement": "upregulation of expression of β-catenin", "setting": "[3]", "value": "~3", "unit": "fold"},
      {"measurement": "relative mRNA expression B-catenin (2^–ΔΔCt)", "setting": "[3]; [12]", "value": 2.86},
      {"measurement": "effect on expression of E-cadherin", "setting": "[4]", "value": "the expression of E-cadherin slightly decreased"},
      {"measurement": "relative mRNA expression E-Cadherin (2^–ΔΔCt)", "setting": "[4]; [12]", "value": 0.73},
      {"measurement": "upregulation of expression of N-cadherin", "setting": "[5]", "value": "~3", "unit": "fold"},
      {"measurement": "relative mRNA expression N-Cadherin (2^–ΔΔCt)", "setting": "[5]; [12]", "value": 3.39},
      {"measurement": "upregulation of expression of SNAI1", "setting": "[6]", "value": "~2", "unit": "fold"},
      {"measurement": "relative mRNA expression SNAI1 (2^–ΔΔCt)", "setting": "[6]; [12]", "value": 1.63},
      {"measurement": "effect on expression of vimentin", "setting": "[7]", "value": "slightly upregulated also the expression of vimentin"},
      {"measurement": "relative mRNA expression Vimentin (2^–ΔΔCt)", "setting": "[7]; [12]", "value": 1.21},
      {"measurement": "wound healing assay observation", "setting": "[8]; 24 h, IC50,72h", "value": "induced formation of the pseudopods"},
      {"measurement": "wound closure capacity", "setting": "[8]; 24 h after treatment with IC50,72h, untreated control 70%", "value": 67, "unit": "%"},
      {"measurement": "mean perimeter of spheroids", "setting": "[9]; 72 h treatment at IC50,72h, control 2.1 mm", "value": "about 2.8 mm"},
      {"measurement": "solidity", "setting": "[9]; one week-old spheroids, 72 h at IC50,72h, control 3.0, Ir1 value affected by collapse of the spheroid structure", "value": 6.3},
      {"measurement": "secondary protrusions (SP)", "setting": "[9]; [13]", "value": "secondary protrusions were identified"},
      {"measurement": "circularity", "setting": "[9]; one week-old spheroids, 72 h treatment at IC50,72h, control 0.96", "value": 0.66},
      {"measurement": "protrusion occurrence (number)", "setting": "[9]; one week-old spheroids, 72 h treatment at IC50,72h, control 4", "value": 2},
      {"measurement": "protrusion occurrence (length)", "setting": "[9]; [13]", "value": 73, "unit": "μm"},
      {"measurement": "protrusion occurrence (length)", "setting": "[9]; one week-old spheroids, 72 h treatment at IC50,72h, listed as doxorubicin", "value": "up to 73 μm"},
      {"measurement": "perimeter", "setting": "[9]; one week-old spheroids, 72 h treatment at IC50,72h, control 2120 ± 310", "value": "2820 ± 506", "unit": "μm"},
      {"measurement": "RFP fluorescence of VIM RFP reporter", "setting": "[10]; 2-fold IC50,72h", "value": "somewhat suppressed the RFP fluorescence"},
      {"measurement": "vimentin expression", "setting": "[10]; sub-toxic concentrations", "value": "considerably increased vimentin expression"},
      {"measurement": "morphology of vimentin intermediate filaments", "setting": "[11]", "value": "adopted a typical structure"}
    ]}
  ]
}
